Data set [1] relates to SARS-CoV-2 PsV. Particulars: 48 h.
Data set [2] deals with SARS-CoV-2 HR1 peptide (SARS-CoV-2).
For data set [3], the target named is human immunoglobulin G (IgG) (human). The data set can be described thus: BLI. A general note: BLI is a label-free optical method that tracks binding on a fibre tip over time.
Data set [4] concerns the target SARS-CoV S protein (Severe acute respiratory syndrome coronavirus, UniProt P59594). The data set can be described thus: cell-based.
Data set [5] concerns Pseudotyped HCoV-229E. To be noted: 48 h.
Data set [6] addresses HCoV-229E S protein (Human coronavirus 229E, UniProt P15423). The data set can be described thus: cell-based.
The nature of data set [7]: in vivo. Particulars: rhesus monkey, iv, 10 mg/kg.
Data set [8] deals with live HCoV-OC43. To be noted: 8 h.
In data set [9] the test system is Pseudotyped HCoV-OC43. To be noted: 48 h.
The subject of data set [10] is Caco-2, Calu-3, RD and Huh-7 cells. To be noted: 24 h.
For data set [11] the following is noted: rhesus monkey, in vivo, iv, 10 mg/kg.
Data set [12] concerns Pseudotyped SARS-CoV-2. Particulars: 48 h.
Data set [13] has as its target T1, SARS-CoV-2 S protein (Severe acute respiratory syndrome coronavirus 2, UniProt P0DTC2). The data set can be described thus: cell-based.
Data set [14] deals with live HCoV-229E. Particulars: 8 h.
In data set [15] the test system is pseudotyped SARS-CoV-2 VOCs. To be noted: 48 h.
The target of data set [16] is HCoV-NL63 S protein (Human coronavirus NL63, UniProt Q6Q1S2). The data set can be described thus: cell-based.
In data set [17] the target is MERS-CoV S protein (Middle East respiratory syndrome-related coronavirus, UniProt K9N5Q8). Put plainly: cell-based.
Data set [18] in a line: in vitro. To be noted: human, Caco-2, Calu-3, RD and Huh-7 cells.
The subject of data set [19] is Pseudotyped WIV1-CoV. Particulars: 48 h.
For data set [20] the following is noted: mouse, in vivo, 50 mg/kg.
Data set [21] concerns the target T1, SARS-CoV-2 S protein. Put plainly: cell-based. To be noted: IC50 against Cell-Cell Fusion Mediated by S Proteins of CoVs.
The target in data set [22] is HCoV-OC43 S protein (Human coronavirus OC43, UniProt P36334). Put plainly: cell-based.
Data set [23] relates to SARS-CoV PsV. To be noted: rhesus monkey, in vivo.
Data set [24] deals with trypsin.
Data set [25] deals with proteinase K (Parengyodontium album, UniProt P06873).
Data set [26] concerns Pseudotyped SARS-CoV. Particulars: 48 h.
The test system of data set [27] is Pseudotyped HCoV-NL63. To be noted: 48 h.
The test system of data set [28] is Pseudotyped MERS-CoV. Particulars: 48 h.
Data set [29] has as its system Pseudotyped SARS-CoV. To be noted: 48 h. The source holds these as a separate data set.
Data set [30] has as its system Pseudotyped SARS-CoV-2. Particulars: 48 h. The source holds these as a separate data set.
The test system of data set [31] is Pseudotyped MERS-CoV. Particulars: 48 h. The source holds these as a separate data set.
Data set [32] concerns Pseudotyped HCoV-NL63. Particulars: 48 h. This is another data set of the same source.
The conditions of data set [33]: in vivo; cited from earlier work.
Data set [34] concerns HCoV-OC43. In kind it is in vivo, ICR mice (newborn).
For data set [35], the target named is SARS-CoV-2 HR1P (Severe acute respiratory syndrome coronavirus 2, UniProt P0DTC2). The format is physicochemical. Particulars: pH 7.2.
For data set [36], the system named is WIV1-CoV S protein. The format is cell-based. Particulars: read-out: IC50 against Cell-Cell Fusion Mediated by S Proteins of CoVs.

pIC50, pKd: −log10 of the molar value. Where two headings read alike, the source gives them in different places. Positions of bridges follow the written chain, without caps; N, C: chain ends. No end group written: not given here.

Sequence of proteinase K (P06873 106-384): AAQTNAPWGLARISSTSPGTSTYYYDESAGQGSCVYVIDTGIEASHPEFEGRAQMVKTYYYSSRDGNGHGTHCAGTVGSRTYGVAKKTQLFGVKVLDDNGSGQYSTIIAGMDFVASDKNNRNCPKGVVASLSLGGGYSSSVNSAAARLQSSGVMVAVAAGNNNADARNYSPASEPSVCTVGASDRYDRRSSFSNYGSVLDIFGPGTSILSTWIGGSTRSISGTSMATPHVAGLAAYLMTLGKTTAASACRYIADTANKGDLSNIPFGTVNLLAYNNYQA

As for “DCAWHLGELVWCTGGSSLDQINVTFLDLEYEMKKLEEAIKKLEESYIDLKEL (disulfide 2-12) [IBP-L-EK1]”, the pIC50 in data set [1] is 6.09.

In [2], IBP-EK1 (peptide) returned an IC50 against pseudotyped SARS-CoV-2 infection of Caco-2 cells of 512 nM and an IC50 against pseudotyped SARS-CoV-2 infection of Calu-3 cells of 180 nM. The pKd in data set [3] was 6.66.

“SLDQINVTFLDLEYEMKKLEEAIKKLEESYIDLKELGGSDCAWHLGELVWCT (disulfide 41-51) [EK1-L-IBP]” showed a pIC50 in [1] of 5.93.

In data set [2], EK1 (peptide) registered an IC50 against pseudotyped SARS-CoV-2 infection of Caco-2 cells of 590 nM and an IC50 against pseudotyped SARS-CoV-2 infection of Calu-3 cells of 253 nM.

Take “DCAWHLGELVWCTSLDQINVTFLDLEYEMKKLEEAIKKLEESYIDLKEL (disulfide 2-12) [IBP-EK1]”: the negative-log IC50 (pIC50) in [4] is 6.64; in [5] it was 5.48; in [6], 6.32; in [8], 6.13; in [1], 6.10; in data set [9], 5.45. Moreover, the pIC50 in data set [12] was 6.74; in data set [13] it was 6.49; in data set [14], 5.38; in data set [15], 6.53 to 6.77; in data set [16], 6.67; in data set [17], 6.42. Further, the values for the pIC50 in [19], in data set [21] and in data set [22] were 5.22, 6.29 and 6.08, respectively. For the same molecule, the Cmax in [7] came out at 51.7 µg/mL; in [23] (iv, 10 mg/kg) it was 116.09 µg/mL. In addition, the Tmax in data set [7] was determined as 2 h; in [23] (iv, 10 mg/kg), 2 h. The molecule further showed a half-life in data set [7] of 37.7 h. The level at 24 h in [7] was about 24 µg/mL. For the same molecule, the “selectivity index (SI = CC50/IC50)” value in data set [10] is given as “more than 100”. In addition, the AUC was 2207.03 µg·h/mL in [11] and 5228.98 µg·h/mL in data set [23] (iv, 10 mg/kg). The same molecule yielded a CC50 at 48 h in [18] of over 100000 nM. For the same molecule, the “ALT level in sera” value in data set [20] is “in the normal range”. The “IBP-EK1-specific antibodies in sera (immunogenicity)” value in data set [20] is on record as “no IBP-EK1-specific antibodies were detected”. Further, the body weight changes entry in data set [20] is reported as “weight changes similar to those of the PBS-treated group”. Also, in data set [20], the “creatinine level in sera” value is given as “in the normal range”. Further, in [20], the “histopathology of lungs, livers and kidneys (H&E)” value is recorded as “no pathological abnormalities in their organs”. Further, in [23], the “half-life relative to that of EK1” value was “about 21 fold”. In data set [23] (iv, 10 mg/kg), this molecule returned a t1/2 of 39.72 h. The “residual inhibitory activity against SARS-CoV-2 PsV after trypsin treatment” value in data set [24] is on record as “significantly better inhibitory activities than those of EK1”. Besides, in data set [25], the “residual inhibitory activity against SARS-CoV-2 PsV after proteinase K treatment” value is “significantly better inhibitory activities than those of EK1”.

“SLDQINVTFLDLEYEMKKLEEAIKKLEESYIDLKELDCAWHLGELVWCT (disulfide 38-48) [EK1-IBP]” had a pIC50 in data set [1] of 5.93.

Turning to “human immunoglobulin G Fc-binding peptide (IBP)”, the pKd in [3] was 5.99.

Turning to `CC(C)C[C@@H]1NC(=O)[C@H](Cc2c[nH]cn2)NC(=O)[C@H](Cc2c[nH]c3ccccc23)NC(=O)[C@H](C)NC(=O)[C@@H](NC(=O)[C@@H](N)CC(=O)O)CSSC[C@@H](C(=O)N[C@H](C(=O)O)[C@@H](C)O)NC(=O)[C@H](Cc2c[nH]c3ccccc23)NC(=O)[C@H](C(C)C)NC(=O)[C@H](CC(C)C)NC(=O)[C@H](CCC(=O)O)NC(=O)CNC1=O` [IBP], the pIC50 in [4] was under 4.30; in data set [5] it was under 4.30; in data set [6], under 4.30; in data set [8] it was under 4.30; in data set [1], under 4.00; in data set [26] it was under 4.30. Moreover, the pIC50 in [27], in [9], in data set [28], in data set [12], in data set [29] and in [14] was under 4.30 each time. Moreover, the pIC50 in [16] was under 4.30; in data set [17], under 4.30; in data set [30] it was under 4.30; in data set [19], under 4.30; in [31], under 4.30; in data set [21], under 4.00. Moreover, the pIC50 in data set [22] and in data set [32] was under 4.30 each time.

In the case of `CC[C@H](C)[C@H](NC(=O)[C@H](C)NC(=O)[C@H](CCC(=O)O)NC(=O)[C@H](CCC(=O)O)NC(=O)[C@H](CC(C)C)NC(=O)[C@H](CCCCN)NC(=O)[C@H](CCCCN)NC(=O)[C@H](CCSC)NC(=O)[C@H](CCC(=O)O)NC(=O)[C@H](Cc1ccc(O)cc1)NC(=O)[C@H](CCC(=O)O)NC(=O)[C@H](CC(C)C)NC(=O)[C@H](CC(=O)O)NC(=O)[C@H](CC(C)C)NC(=O)[C@H](Cc1ccccc1)NC(=O)[C@@H](NC(=O)[C@@H](NC(=O)[C@H](CC(N)=O)NC(=O)[C@@H](NC(=O)[C@H](CCC(N)=O)NC(=O)[C@H](CC(=O)O)NC(=O)[C@H](CC(C)C)NC(=O)[C@@H](N)CO)[C@@H](C)CC)C(C)C)[C@@H](C)O)C(=O)N[C@@H](CCCCN)C(=O)N[C@@H](CCCCN)C(=O)N[C@@H](CC(C)C)C(=O)N[C@@H](CCC(=O)O)C(=O)N[C@@H](CCC(=O)O)C(=O)N[C@@H](CO)C(=O)N[C@@H](Cc1ccc(O)cc1)C(=O)N[C@H](C(=O)N[C@@H](CC(=O)O)C(=O)N[C@@H](CC(C)C)C(=O)N[C@@H](CCCCN)C(=O)N[C@@H](CCC(=O)O)C(=O)N[C@@H](CC(C)C)C(=O)O)[C@@H](C)CC` [EK1], the pIC50 was 5.46 in data set [5]; 6.12 in data set [8]; 6.10 in data set [1]; 5.44 in data set [9]; 6.60 in [12]; 5.12 in data set [14]. In addition, the results for the pIC50 in [19] and in data set [36] were 5.16 and 6.23, respectively. Further, the “t1/2 (reported value)” value in [33] is 1.8 h. Also, the “protection (survival), prophylactic” value in [34] (3-day-old suckling mice, 10 mg/kg intranasal single dose 1 h before HCoV-OC43 (100 TCID50) challenge) amounted to 100%. Further, the “viral loads in mouse brain, therapeutic group” value in data set [34] (day 5 post challenge, 10 mg/kg intranasal 1 h after challenge, vs viral control) is “significantly different from those of viral control group”. The “viral loads in mouse brain, prophylactic group” value in data set [34] (day 5 post challenge, 10 mg/kg intranasal 1 h before challenge, relative RNA quantification vs viral control) was “very low”. Further, the “ex vivo inhibition of SARS-CoV PsV by serum (fold of its IC50)” value in [23] (iv, 10 mg/kg) is recorded as “below 450 fold”. This molecule also had a t1/2 in [23] (iv, 10 mg/kg) of 1.77 h. Further, the “Tm of complex with SARS-CoV-2 HR1P” value in [35] amounted to 51.05 °C.

In general, pIC50 refers to −log10 of the IC50, conventionally taken in molar units. Usually pKd stands for the Kd on a negative log10 scale, so that one unit is a factor of ten. A higher pKd goes with a low Kd. As a reminder, the Cmax is the maximum level reached in the sampled fluid or tissue. Usually Tmax stands for the time at which the peak concentration occurs. The half-life is the time needed for the level to fall by half in the phase considered. As a reminder, the AUC is the area under the concentration-time curve, a measure of exposure. By CC50 is commonly meant the concentration that lowers cell viability or growth by half.

(Values after article PMC10526447 (Biomolecules, 2023).)
